Target: Fatty acid synthase (FASN) (Homo sapiens, UniProt P49327)
Assay: […]malonyl-CoA incorporation into fatty acids by purified FASN
Assay type: biochemical

Fatty acid synthase (FASN), sequence (P49327 whole entry): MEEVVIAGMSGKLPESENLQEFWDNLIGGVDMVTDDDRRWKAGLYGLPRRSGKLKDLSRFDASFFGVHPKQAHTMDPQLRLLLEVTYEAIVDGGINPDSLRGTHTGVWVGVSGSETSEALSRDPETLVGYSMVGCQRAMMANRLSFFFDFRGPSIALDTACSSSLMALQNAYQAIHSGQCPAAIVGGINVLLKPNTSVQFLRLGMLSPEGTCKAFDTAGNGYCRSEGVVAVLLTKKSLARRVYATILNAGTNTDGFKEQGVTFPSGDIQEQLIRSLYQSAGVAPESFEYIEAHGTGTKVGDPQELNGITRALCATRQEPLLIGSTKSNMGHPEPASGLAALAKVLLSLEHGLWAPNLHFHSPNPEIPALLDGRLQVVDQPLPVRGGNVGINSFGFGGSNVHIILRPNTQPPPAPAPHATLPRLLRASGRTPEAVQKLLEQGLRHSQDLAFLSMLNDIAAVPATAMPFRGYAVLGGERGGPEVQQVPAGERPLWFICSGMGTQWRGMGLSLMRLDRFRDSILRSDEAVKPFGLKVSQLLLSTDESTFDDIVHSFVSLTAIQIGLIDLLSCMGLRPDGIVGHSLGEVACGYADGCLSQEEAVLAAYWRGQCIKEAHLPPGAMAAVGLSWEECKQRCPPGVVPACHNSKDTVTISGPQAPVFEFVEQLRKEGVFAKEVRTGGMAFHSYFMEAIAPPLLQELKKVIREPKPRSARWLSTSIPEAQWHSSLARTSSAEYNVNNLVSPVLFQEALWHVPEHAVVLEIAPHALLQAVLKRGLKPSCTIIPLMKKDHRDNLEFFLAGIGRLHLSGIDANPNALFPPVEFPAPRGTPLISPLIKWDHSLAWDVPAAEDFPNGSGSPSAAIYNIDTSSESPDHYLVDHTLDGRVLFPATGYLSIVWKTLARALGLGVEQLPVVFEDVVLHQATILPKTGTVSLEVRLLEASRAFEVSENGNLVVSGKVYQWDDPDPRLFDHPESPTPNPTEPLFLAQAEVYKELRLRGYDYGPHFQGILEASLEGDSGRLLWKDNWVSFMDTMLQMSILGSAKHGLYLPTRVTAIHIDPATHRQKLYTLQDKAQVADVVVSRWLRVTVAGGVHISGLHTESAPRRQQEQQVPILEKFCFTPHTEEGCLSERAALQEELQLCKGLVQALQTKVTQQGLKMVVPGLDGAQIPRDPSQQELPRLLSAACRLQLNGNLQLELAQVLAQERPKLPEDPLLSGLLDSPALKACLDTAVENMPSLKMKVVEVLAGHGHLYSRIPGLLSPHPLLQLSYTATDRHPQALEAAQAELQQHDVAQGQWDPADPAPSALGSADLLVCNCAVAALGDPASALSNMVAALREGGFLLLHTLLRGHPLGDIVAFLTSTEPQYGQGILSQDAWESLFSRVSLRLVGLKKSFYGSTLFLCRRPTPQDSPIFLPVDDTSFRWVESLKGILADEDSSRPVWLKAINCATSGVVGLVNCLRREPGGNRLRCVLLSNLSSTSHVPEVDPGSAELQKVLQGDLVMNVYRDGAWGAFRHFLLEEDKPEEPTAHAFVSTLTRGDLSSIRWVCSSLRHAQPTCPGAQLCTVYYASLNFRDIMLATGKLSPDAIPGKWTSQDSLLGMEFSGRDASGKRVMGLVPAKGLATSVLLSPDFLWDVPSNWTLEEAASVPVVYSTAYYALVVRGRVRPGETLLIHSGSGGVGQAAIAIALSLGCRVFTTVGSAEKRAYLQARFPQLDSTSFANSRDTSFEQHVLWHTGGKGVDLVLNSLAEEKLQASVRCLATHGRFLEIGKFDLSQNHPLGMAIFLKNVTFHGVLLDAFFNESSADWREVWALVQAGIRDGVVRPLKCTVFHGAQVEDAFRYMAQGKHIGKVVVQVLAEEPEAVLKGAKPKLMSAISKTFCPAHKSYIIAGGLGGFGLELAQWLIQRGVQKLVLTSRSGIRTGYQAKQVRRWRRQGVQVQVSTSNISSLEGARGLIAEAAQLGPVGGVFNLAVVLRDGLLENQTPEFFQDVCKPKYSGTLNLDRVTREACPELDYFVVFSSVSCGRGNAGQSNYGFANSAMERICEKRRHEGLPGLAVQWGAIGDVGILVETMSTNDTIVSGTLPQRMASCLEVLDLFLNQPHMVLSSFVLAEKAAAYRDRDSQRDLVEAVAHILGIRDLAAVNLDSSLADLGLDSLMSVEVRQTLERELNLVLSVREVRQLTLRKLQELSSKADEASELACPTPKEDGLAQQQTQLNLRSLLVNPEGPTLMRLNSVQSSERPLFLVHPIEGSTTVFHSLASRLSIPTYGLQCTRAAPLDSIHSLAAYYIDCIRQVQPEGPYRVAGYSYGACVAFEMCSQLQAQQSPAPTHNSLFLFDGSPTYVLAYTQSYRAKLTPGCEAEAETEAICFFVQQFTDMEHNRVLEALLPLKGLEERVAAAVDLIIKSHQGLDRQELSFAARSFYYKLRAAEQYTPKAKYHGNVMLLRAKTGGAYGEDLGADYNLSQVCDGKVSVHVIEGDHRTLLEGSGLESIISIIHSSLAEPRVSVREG

## Cc1sc2ncnc(NC3CCN(Cc4ccccc4)C3)c2c1C (stereo not shown) [Fasnall]
  IC50: 3.71 µM
